Activity calls are given as the source filed them. The rule behind the calls is not given here.

The subject of data set [1] is Staphylococcus aureus. Nature of the data set: Antibiofilm activity against Methicillin resistant Staphylococcus aureus ATCC 43300 assessed as inhibition of biofilm formation at 5 uM incubated for 48 hrs by crystal violet staining based microplate reader analysis. It counts as functional, organism-based.
The test system of data set [2] is Staphylococcus aureus. Nature of the data set: Antibacterial activity against Methicillin resistant Staphylococcus aureus ATCC 43300 assessed as reduction in bacterial growth at 2 to 5 uM. Format: functional, organism-based. The following applies: dose 2-5 µM.
Data set [3] has as its system Staphylococcus aureus. As to the kind of experiment: Antibacterial activity against Staphylococcus aureus infected in male Sprague-Dawley rat wound model assessed as wound closure at 2 uM administered every 2 days and measured on day 4 relative to control. It counts as functional. The following applies: time 4 day.
Data set [4] has as its system Staphylococcus aureus. As to the kind of experiment: Antibacterial activity against Methicillin resistant Staphylococcus aureus infected in male Sprague-Dawley rat wound model assessed as wound closure at 2 uM administered every 2 days and measured on day 10 (reference value: 66.84%). Format: functional. The following applies: time 10 day.
The subject of data set [5] is Staphylococcus aureus. Nature of the data set: Antibacterial activity against Staphylococcus aureus infected in male Sprague-Dawley rat wound model assessed as wound healing with newly formed epidermal tissues at 2 uM administered every 2 days and measured after 10 days. The following applies: time 10.0 day. Format: functional, organism-based.
Data set [6] concerns Staphylococcus aureus. As to the kind of experiment: Antibacterial activity against Staphylococcus aureus infected in male Sprague-Dawley rat wound model assessed as wound healing at 2 uM administered every 2 days and measured after 10 days. Format: functional, organism-based. The following applies: time 10.0 day.
In data set [7] the test system is Staphylococcus aureus. Nature of the data set: Antimicrobial activity against Staphylococcus aureus ATCC 29213 assessed as inhibition of microbial growth at 80 uM incubated for 10 hrs by spectrophotometric analysis. Format: functional, organism-based.
Data set [8] has as its system Staphylococcus aureus. As to the kind of experiment: Antimicrobial activity against Staphylococcus aureus ATCC 29213 assessed as appearance of deformed bacteria at 20 uM incubated for 2 hrs by SEM analysis. Format: functional, organism-based.
Data set [9] has as its system Staphylococcus aureus. As to the kind of experiment: Antimicrobial activity against Staphylococcus aureus ATCC 29213 assessed as reduction in bacterial survival at 20 uM incubated for 8 hrs by spectrophotometric analysis relative to control. It counts as functional.
For data set [10], the system named is Staphylococcus aureus. Nature of the data set: Antimicrobial activity against Staphylococcus aureus ATCC 29213 assessed as appearance of wrinkled bacteria by measuring leakage at 20 uM incubated for 2 hrs by SEM analysis. Format: functional, organism-based.
Data set [11] deals with Staphylococcus aureus. As to the kind of experiment: Antimicrobial activity against Staphylococcus aureus ATCC 29213 assessed as large area of intracellular content at 20 uM incubated for 2 hrs by SEM analysis. Format: functional, organism-based.
Data set [12] concerns Staphylococcus aureus. Nature of the data set: Antibiofilm activity against Staphylococcus aureus ATCC 29213 assessed as increase in green fluorescence at 5 uM incubated for 12 hrs by SYTO9/PI staining based confocal laser scanning microscopic analysis. Format: functional, organism-based.
The subject of data set [13] is Staphylococcus aureus. Nature of the data set: Antibiofilm activity against Staphylococcus aureus ATCC 29213 assessed as inhibition of biofilm formation at 5 uM incubated for 48 hrs by crystal violet staining based microplate reader analysis. Format: functional, organism-based.
Data set [14] deals with Staphylococcus aureus. As to the kind of experiment: Antibiofilm activity against Staphylococcus aureus ATCC 29213 assessed as damaged bacterial cells by measuring red fluorescence at 20 uM incubated for 12 hrs by SYTO9/PI staining based confocal laser scanning microscopic analysis. Format: functional, organism-based.
In data set [15] the test system is Staphylococcus aureus. As to the kind of experiment: Antibiofilm activity against Staphylococcus aureus ATCC 29213 assessed as biofilm eradication at 10 uM incubated for 48 hrs by crystal violet staining based microplate reader analysis relative to control. It counts as functional.
Data set [16] relates to Staphylococcus aureus. As to the kind of experiment: Antimicrobial activity against Staphylococcus aureus ATCC 29213 assessed as appearance of damaged bacteria by measuring leakage at 20 uM incubated for 2 hrs by SEM analysis. It counts as functional, organism-based.
Data set [17] can be described thus: Hemolytic activity in rabbit RBC assessed as hemolytic rate at 32 uM incubated for 1 hrs by spectrophotometric analysis. It counts as toxicity, cell-based, Oryctolagus cuniculus, Erythrocyte. The following applies: red blood cells (RBC), read-out: Activity.
In data set [18] the test system is Staphylococcus aureus. Nature of the data set: Antimicrobial activity against Staphylococcus aureus ATCC 29213 assessed as intracellular content leakage at 20 uM incubated for 2 hrs by SEM analysis. Format: functional, organism-based.
In data set [19] the test system is Staphylococcus aureus. Nature of the data set: Antibacterial activity against Methicillin resistant Staphylococcus aureus ATCC 43300 incubated for 18 hrs. Format: functional.
Data set [20] concerns Aggregatibacter actinomycetemcomitans. As to the kind of experiment: Antibacterial activity against Actinobacillus actinomycetemcomitans ATCC 43717 incubated for 18 hrs. Format: functional.
The test system of data set [21] is MC3T3-E1. Nature of the data set: Cytotoxicity against mouse MC3T3-E1 cells assessed as reduction in cell viability at 2 uM incubated for 2 days by CCK-8 assay relative to control. It counts as toxicity, cell-based. Conditions: mc3t3-e1, 48 h, time 2 day. Background: Formazan colour is commonly taken as a measure of viable cells.
The subject of data set [22] is Escherichia coli. As to the kind of experiment: Antibacterial activity against Escherichia coli ATCC 25922 incubated for 18 hrs. It counts as functional.
The subject of data set [23] is Streptococcus mutans. Nature of the data set: Antibacterial activity against Streptococcus mutans ATCC 25175 incubated for 18 hrs. Format: functional.
Data set [24] concerns MC3T3-E1. Nature of the data set: Cytotoxicity against mouse MC3T3-E1 cells assessed as reduction in cell viability at > 10 uM incubated for 2 days by CCK-8 assay. Format: toxicity, cell-based. Conditions: mc3t3-e1, 48 h, time 2 day.
Data set [25] concerns Escherichia coli. Nature of the data set: Bactericidal activity against Escherichia coli ATCC 25922 incubated for 18 hrs. Format: functional.
The test system of data set [26] is Staphylococcus aureus. As to the kind of experiment: Antimicrobial activity against Staphylococcus aureus ATCC 29213 assessed as appearance of intracellular content in whole area at 20 uM incubated for 2 hrs by SEM analysis. It counts as functional, organism-based.
The subject of data set [27] is Staphylococcus aureus. As to the kind of experiment: Antimicrobial activity against Staphylococcus aureus ATCC 29213 assessed as disappearance of normal shape at 20 uM incubated for 2 hrs by SEM analysis. Format: functional, organism-based.
The subject of data set [28] is Aggregatibacter actinomycetemcomitans. As to the kind of experiment: Bactericidal activity against Actinobacillus actinomycetemcomitans ATCC 43717 incubated for 18 hrs. It counts as functional.
The subject of data set [29] is Staphylococcus aureus. As to the kind of experiment: Antimicrobial activity against Staphylococcus aureus ATCC 29213 assessed as inhibition of microbial growth at 5 uM incubated for 10 hrs by spectrophotometric analysis relative to control. It counts as functional. The arrangement: scale not given: the % may be the effect or the level left.
The test system of data set [30] is Staphylococcus aureus. As to the kind of experiment: Antibiofilm activity against Methicillin resistant Staphylococcus aureus ATCC 43300 assessed as reduction in colony count at 2 to 5 uM incubated for 24 hrs by CFU assay. It counts as functional, organism-based. The following applies: dose 2-5 µM.
The subject of data set [31] is Streptococcus mutans. Nature of the data set: Antibiofilm activity against Streptococcus mutans ATCC 25175 assessed as inhibition of biofilm formation at 5 uM incubated for 48 hrs by crystal violet staining based microplate reader analysis. Format: functional, organism-based.
Data set [32] has as its system Staphylococcus aureus. Nature of the data set: Antimicrobial activity against Staphylococcus aureus ATCC 29213 assessed as reduction in bacterial survival at 5 uM incubated for 4 hrs by spectrophotometric analysis relative to control. Format: functional.
For data set [33], the system named is Staphylococcus aureus. As to the kind of experiment: Antibiofilm activity against Staphylococcus aureus ATCC 29213 assessed as damaged bacterial cells by measuring red fluorescence at 5 uM incubated for 12 hrs by SYTO9/PI staining based confocal laser scanning microscopic analysis. It counts as functional, organism-based.
In data set [34] the test system is Staphylococcus aureus. Nature of the data set: Antibacterial activity against Methicillin resistant Staphylococcus aureus infected in male Sprague-Dawley rat wound model assessed as wound closure at 2 uM administered every 2 days and measured on day 7 (reference value: 66.84%). Format: functional. The following applies: time 7 day.
Data set [35] deals with Staphylococcus aureus. Nature of the data set: Antimicrobial activity against Staphylococcus aureus ATCC 29213 assessed as reduction in bacterial survival at 5 uM incubated for 2 hrs by spectrophotometric analysis relative to control. It counts as functional.
The subject of data set [36] is Staphylococcus aureus. As to the kind of experiment: Bactericidal activity against Methicillin resistant Staphylococcus aureus ATCC 43300 incubated for 18 hrs. Format: functional.
The test system of data set [37] is Aggregatibacter actinomycetemcomitans. Nature of the data set: Antibiofilm activity against Actinobacillus actinomycetemcomitans ATCC 43717 assessed as inhibition of biofilm formation at 5 uM incubated for 48 hrs by crystal violet staining based microplate reader analysis. It counts as functional, organism-based.
The test system of data set [38] is Streptococcus mutans. Nature of the data set: Bactericidal activity against Streptococcus mutans ATCC 25175 incubated for 18 hrs. It counts as functional.
For data set [39], the system named is Staphylococcus aureus. As to the kind of experiment: Antibiofilm activity against Staphylococcus aureus ATCC 29213 assessed as disappearance of colony formation at 2 uM incubated for 48 hrs by crystal violet staining based microplate reader analysis. Format: functional, organism-based.
The test system of data set [40] is Staphylococcus aureus. As to the kind of experiment: Antibiofilm activity against Staphylococcus aureus ATCC 29213 assessed as inhibition of biofilm formation at 2 uM incubated for 48 hrs by crystal violet staining based microplate reader analysis. It counts as functional, organism-based.
Data set [41] has as its system Staphylococcus aureus. Nature of the data set: Antimicrobial activity against Staphylococcus aureus ATCC 29213 assessed as reduction in bacterial survival at 5 uM incubated for 8 hrs by spectrophotometric analysis relative to control. Format: functional.
Data set [42] concerns Staphylococcus aureus. Nature of the data set: Antimicrobial activity against Staphylococcus aureus ATCC 29213 assessed as appearance of damaged bacteria at 5 uM incubated for 2 hrs by SEM analysis relative to control. It counts as functional.

With `CCn1cc(C(=O)O)c(=O)c2cc(F)c(N3CCNCC3)cc21`, the Activity result in the data set with Staphylococcus aureus [1] was “Active; Weaker Inhibition Of Biofilm Observed”. For the same compound, the outcome in the data set with Staphylococcus aureus [2] was inactive.

Turning to `CO[C@@]1(NC(=O)Cc2cccs2)C(=O)N2C(C(=O)O)=C(COC(N)=O)CS[C@@H]21` [CEFOXITIN], the Activity was 66.13% in the data set on Staphylococcus aureus [3], “Active; Weaker Inhibition Of Biofilm Observed” in the data set with Staphylococcus aureus [1] and 77.35% in the data set with Staphylococcus aureus [4]. The outcome in the data set on Staphylococcus aureus [2] was inactive. In addition, the result in the data set on Staphylococcus aureus [5] and in the data set with Staphylococcus aureus [6] was Active.

Turning to H-FGLDIIKKIAESF-NH2, the result in the data set with Staphylococcus aureus [7] and with Staphylococcus aureus [8] was Active.

H-FGLKIIKKIAKSF-NH2: the Activity came to 6.45% in the data set with Staphylococcus aureus [9] and 100% in the data set with Staphylococcus aureus [15]. The result in the data set with Staphylococcus aureus [10], in the data set with Staphylococcus aureus [11], in the data set with Staphylococcus aureus [13], in the data set with Staphylococcus aureus [14] and in the data set with Staphylococcus aureus [16] was Active. In addition, the outcome with Staphylococcus aureus [12] was inactive.

Consider H-FLFDIIKKIAESG-NH2, for which the outcome in the data set with Staphylococcus aureus [7] was Active.

As for H-GLFDIIKKIAEFS-NH2, in the data set with Staphylococcus aureus [8], the result was Active.

Consider H-GLFDIIKKIAESF-NH2, for which, in [17], the hemolysis at 1 h, 32 µM is less than 10%. Further, in the data set on Staphylococcus aureus [18], the outcome was Active. The MIC (in the data set on Staphylococcus aureus [19]; in data set [20]; in the data set with Escherichia coli [22]; in the data set with Streptococcus mutans [23]) was no less than 80 µM in each case. In addition, the Activity with MC3T3-E1 [21] was determined as 91.16%.

On to H-GLFKIIKKIAKSF-NH2, for which the Activity is 6.7% in the data set with Staphylococcus aureus [9]; “Toxic” in the data set on MC3T3-E1 [24]; 68.16% in the data set on Staphylococcus aureus [3]; 100% in the data set on Staphylococcus aureus [29]; 8.89% in the data set on Staphylococcus aureus [32]; “<=92.65%” in the data set on Staphylococcus aureus [34]. In addition, the Activity in the data set with Staphylococcus aureus [4] came to 100%; in the data set on Staphylococcus aureus [35], 11.54%; with MC3T3-E1 [21] it was 85.49%; with Staphylococcus aureus [41] it was 8.24%; in the data set with Staphylococcus aureus [42] it was 100%. The MBC (in the data set with Escherichia coli [25]; in data set [28]; in the data set with Staphylococcus aureus [36]; against Streptococcus mutans [38]) was no more than 10 µM in each case. The result in the data set with Staphylococcus aureus [26], in the data set on Staphylococcus aureus [11], in the data set on Staphylococcus aureus [27], in the data set on Staphylococcus aureus [30], in the data set with Streptococcus mutans [31] and with Staphylococcus aureus [33] was Active. Besides, the outcome (in the data set with Staphylococcus aureus [1]; in [37]; in the data set on Staphylococcus aureus [39]; with Staphylococcus aureus [5]; in the data set with Staphylococcus aureus [40]; with Staphylococcus aureus [6]) was Active. For the same compound, in the data set on Staphylococcus aureus [14], the outcome was Active. Moreover, in data set [17], the hemolysis at 1 h, 32 µM is less than 10%. Besides, the MIC (against Staphylococcus aureus [19]; in data set [20]; against Escherichia coli [22]; against Streptococcus mutans [23]) was no more than 10 µM in each case.

On to H-GLFKIIKKIAKSG-NH2, for which the result in the data set on Staphylococcus aureus [8] was Active.

The values are drawn from ChEMBL document CHEMBL6182917, “Molecular-Level Strategy from Bottom-Up to Acquire High-Efficiency Antimicrobial Peptides” (J Med Chem, 2025).
